These results are taken from patent US20240115654A1, “INTRAVENOUS ADMINISTRATION OF ENGINEERED ANTIMICROBIAL AMPHIPHILIC PEPTIDES” (priority 2021, published 2024).

Where two headings read alike, the source gives them in different places. Peptide text beside a SMILES is read from it. Bounds are passed on as bounds.

For series [1] the following is noted: mice.
Source text: (§1) Male CD-1 mice will be received from an approved vendor and allowed to acclimate for a minimum of two days. Fasting will be not required.
(§2) All dosing syringes will be weighed prior to and following dosing. IV doses will be administered as a slow bolus (over ˜30 seconds) via direct venipuncture of a tail vein. All animals will be observed at dosing and each scheduled collection. All abnormalities will be recorded.
(§3) Terminal blood samples will be collected via cardiac puncture following inhalation anesthesia.
(§4) Sample Processing and Storage: Blood samples will be collected into K2EDTA tubes and stored on wet ice. Whole blood will be processed to plasma by centrifugation (3500 rpm at 5° C.) within 30 minutes of collection. Plasma samples will be split into 2 equal aliquots and each transferred into 96 well plates (matrix tubes) and stored at −80° C. until analysis. Administered doses will be determined gravimetrically.
(§5) Prior to extraction, a known concentration of a mass-adjusted internal standard (IS) will be added to assess recovery and allow for quantitation. Purified samples will be further subjected to high-performance liquid chromatography (HPLC) using C18 300 or 130 angstrom columns prior to MS/MS analysis. Multiple charge states will be observed by MS, so MS/MS will be employed to enable multiple reaction monitoring (MRM) analyses to determine the most MRM transitions with the highest signal-to-noise gain. Compound plasma concentrations will be determined by comparing to and compensating with co-purified IS peak intensity and validated calibrated standard curves.
(§6) Pharmacokinetic parameters will be calculated using non-compartmental methods as implemented in the Phoenix® WinNonlin® ver. 6.3 comprehensive TK/PK analysis software program (Pharsight Corporation; Mountain View, CA) using an IV infusion model. Pharmacokinetic analysis will be conducted using a 30-minute intravenous infusion time. Therefore, 30 minutes will be added to each sample time point postdose to obtain nominal time for TK analysis. Nominal times and dosage levels will be used for all calculations. Values below the lower limit of quantitation (BLQ) will be assigned a value of zero for the pharmacokinetic calculations. Microsoft® Excel® 2013 will be used for receipt of bioanalytical data, minor formatting, including setting BLQ values to “0”, transfer into WinNonlin® for PK analysis, and calculation of the mean when an approximated value will be excluded. All plasma concentration data from all animals will be included in the analysis. Graphical presentations will be performed using Microsoft® Excel® 2013.
For series [2] the following is noted: mouse, in vivo, iv, 3 mg/kg.
Source text: as §1, §2, §3, §4, §5, §6
Series [3] concerns Acinetobacter baumannii ATCC BAA-1797 (MDR). Format: cell-based. As to conditions: Acinetobacter baumannii ATCC BAA-1797 (MDR). The method, boiled down:
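MHB II + 0.002% P80, CLSI microdilution, 2-fold peptide series (top 32 mcg/mL final), ~5×10^5 CFU/mL, 35° C, 16–20 hrs. MIC = lowest conc. with no visible growth.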

Series [4] concerns Escherichia coli ATCC 25922 (QC). As to conditions: E. coli ATCC 25922; established CLSI QC range; cited from earlier work.

One may read the MRT last as a mean duration of stay, worked out from the concentration-time curve. As a reminder, the Vss is the apparent volume that relates the amount in the body to the concentration in plasma or blood. Lower therefore signals confinement near the circulation. Usually Vz stands for a proportionality between amount in the body and measured concentration, not a real space. A higher Vz goes with wide distribution into tissue. As a reminder, the Tmax is the time at which the peak concentration occurs. Regarding `CC(C)[C@H](NC(=O)[C@H](Cc1c[nH]c2ccccc12)NC(=O)[C@H](CCCNC(=N)N)NC(=O)[C@H](CCCNC(=N)N)NC(=O)[C@@H](NC(=O)[C@@H](NC(=O)[C@H](CCCNC(=N)N)NC(=O)[C@@H](NC(=O)[C@@H](NC(=O)[C@H](CCCNC(=N)N)NC(=O)[C@H](CCCNC(=N)N)NC(=O)[C@H](Cc1c[nH]c2ccccc12)NC(=O)[C@@H](NC(=O)[C@H](CCCNC(=N)N)NC(=O)[C@H](CCCNC(=N)N)NC(=O)[C@@H](NC(=O)[C@H](CCCNC(=N)N)NC(=O)[C@H](CCCNC(=N)N)NC(=O)[C@@H](NC(=O)[C@H](Cc1c[nH]c2ccccc12)NC(=O)[C@H](CCCNC(=N)N)NC(=O)[C@@H](N)CCCNC(=N)N)C(C)C)C(C)C)C(C)C)C(C)C)C(C)C)C(C)C)C(C)C)C(=O)N[C@@H](CCCNC(=N)N)C(=O)N[C@@H](CCCNC(=N)N)C(N)=O` [SEQ ID NO: 1] (H-RRWVRRVRRVWRRVVRVVRRWVRR-NH2), in series [1] (3 mg/kg IV), the AUCinf is below 3500 ng·h/mL, the CL is around 5 mL/min/kg, the Extrapolated is recorded as around 0.5% and the MRT last was around 30 min. Besides, in series [1] (3 mg/kg IV), the T1/2 was around 480 min, the distribution volume (Vss) is around 0.2 L/kg and the Vz is around 3 L/kg. Further, in series [1] (15 mg/kg IV), the AUCinf_D stood at 3589 kg·ng·h/mL/ng and the Extrapolated is reported as 0.49%. Further, the time of peak concentration (Tmax) in series [2] came out at 2 min.
As usually defined, the MIC is the least concentration at which growth counts as inhibited. Colistin [reference compound] registered a minimal inhibitory concentration (MIC) in series [3] of 0.5 µg/mL. Further, the “MIC QC range (in parentheses under the MIC)” value in series [4] was “(0.25-2) μg/mL”.
